Laboratory results as given in patent US20210317092A1 (BAYER PHARMA AKTIENGESELLSCHAFT, priority 2016, published 2021).

Target: T1, human Bradykinin B1 receptor (Homo sapiens, UniProt P46663)
T1 construct: host or cells: CHO-K1
T1 sequence (P46663 1-353): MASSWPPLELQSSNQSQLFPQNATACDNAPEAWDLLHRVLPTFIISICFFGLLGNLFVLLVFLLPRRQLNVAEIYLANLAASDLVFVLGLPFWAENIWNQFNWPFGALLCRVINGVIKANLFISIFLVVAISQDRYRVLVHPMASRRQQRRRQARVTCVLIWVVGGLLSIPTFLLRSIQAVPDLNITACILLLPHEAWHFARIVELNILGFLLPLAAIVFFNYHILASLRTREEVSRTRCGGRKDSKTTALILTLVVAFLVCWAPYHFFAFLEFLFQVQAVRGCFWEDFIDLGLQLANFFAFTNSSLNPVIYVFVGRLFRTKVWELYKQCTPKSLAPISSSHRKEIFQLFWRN
Assay: Calcium flux Assay (FLIPR) with recombinant CHO-K1 cells expressing human Bradykinin B1 receptor, in presence (hB1 IC50) or absence (hB1 free IC50) of 0.1% BSA
Type: cell-based
Conditions: in absence of 0.1% BSA, read-out: hB1 free IC50

Going from O=C(Nc1ccc(-n2cc(C(F)(F)F)cn2)c(-c2nnn[nH]2)c1)C1(c2cccc(Cl)c2)CC1 [Example 349, 1-(3-Chlorophenyl)-N-{3-(1H-tetrazol-5-yl)-4-[4-(trifluoromethyl)-1H-pyrazol-1-yl]phenyl}cyclopro-panecarboxa-mide] to CC(C)(C)c1cnn(-c2ccc(NC(=O)C3(c4ccc(C(F)(F)F)cc4F)CC3)cc2-c2nnn[nH]2)c1 [Example 410, 1-[2-fluoro-4-(trifluoromethyl)phenyl]-N-[4-(4-tert-butyl-1H-pyrazol-1-yl)-3-(1H-tetrazol-5-yl)phenyl]cyclopro-panecarboxa-mide], the IC50 falls from 590 nM to 6.05 nM (98-fold).

Going from Cc1ccc(C2(C(=O)Nc3ccc(-c4ccc(C(C)(F)F)nc4)c(-c4nnn[nH]4)c3)CC2)c(F)c1 [Example 280, N-{4-[6-(1,1-difluoroethyl)py-ridin-3-yl]-3-(1H-tetrazol-5-yl)phenyl}-1-(2-fluoro-4-methylphenyl)cy-clopropanecar-boxamide] to CCc1ccn(-c2ccc(NC(=O)C3(c4ccc(C)cc4F)CC3)cc2-c2nnn[nH]2)n1 [Example 371, N-[4-(3-ethyl-1H-pyrazol-1-yl)-3-(1H-tetrazol-5-yl)phenyl]-1-(2-fluoro-4-methylphenyl)cyclo-propanecar-boxamide], the IC50 rises from 11.3 nM to 282 nM (25-fold). The first is the more potent here.

In the case of CC(C)(C)c1ccn(-c2ccc(NC(=O)C3(c4ccc(OC(F)(F)F)cc4F)CC3)cc2-c2nnn[nH]2)n1 [Example 381, N-[4-(3-tert-Butyl-1H-pyrazol-1-yl)-3-(1H-tetrazol-5-yl)phenyl]-1-[2-fluoro-4-(trifluoromethoxy)phenyl]cyclo-propanecarboxa-mide], the IC50 is reported as 36.7 nM.

Same assay, conditions: in presence of 0.1% BSA, read-out: hB1 IC50

Going from CCOc1ccc(-c2ccc(NC(=O)C3(C4CCC(C)(C)CC4)CC3)cc2-c2nnn[nH]2)cn1 [Example 109, 1-(4,4-dimethylcyclo-hexyl)-N-[4-(6-ethoxypyridin-3-yl)-3-(1H-tetrazol-5-yl)phenyl] cyclopropane-carboxamide] to O=C(Nc1ccc(-c2ccc(OCC(F)(F)F)nc2)c(-c2nnn[nH]2)c1)C1(c2cccc(Cl)c2)CC1 [Example 313, 1-(3-chlorophenyl)-N-{3-(1H-tetrazol-5-yl)-4-[6-(2,2,2-trifluoroethoxy)-pyridin-3-yl]phenyl}cyclopropanecarboxamide], the IC50 rises from 12.2 nM to 191 nM (16-fold).

Compared with COc1ccc(-c2ccc(NC(=O)C3(c4ccccc4)CC3)cc2-c2nnn[nH]2)cc1OC [Example 35, N-[3′,4′-dimethoxy-2-(1H-tetrazol-5-yl)biphenyl-4-yl]-1-phenylcyclo-propane-carboxamide], COc1ccc(-c2ccc(NC(=O)C3(c4cccc(F)c4)CC3)cc2-c2nnn[nH]2)cc1OC [Example 10, N-[3′,4′-dimethoxy-2-(1H-tetrazol-5-yl)biphenyl-4-yl]-1-(3-fluorophenyl) cyclopropane-carboxamide] is 3.1-fold lower in IC50: 213 nM for the first, 68.8 nM for the second.

Compared with O=C(Nc1cc(-c2nnn[nH]2)c(-c2ccc(C(F)(F)F)nc2)cc1O)C1(c2cccc(Cl)c2F)CC1 [Example 225, 1-(3-chloro-2-fluorophenyl)-N-{2-hydroxy-5-(1H-tetrazol-5-yl)-4-[6-(trifluoromethyl)pyridin-3-yl]phenyl} cyclopropane-carboxamide], COc1ccc(-c2cc(F)c(NC(=O)C3(c4cc(Cl)ccc4F)CC3)cc2-c2nnn[nH]2)cc1 [Example 229, 1-(5-Chloro-2-fluorophenyl)-N-[5-fluoro-4′-methoxy-2-(1H-tetrazol-5-yl)biphenyl-4-yl]cyclopropane carboxamide] is 14-fold higher in IC50: 88.9 nM for the first, 1280 nM for the second. The first is the more potent here.

Compared with COc1ccc(-c2ccc(NC(=O)C3(c4cc(F)cc(F)c4)CC3)cc2-c2nnn[nH]2)cc1OC [Example 13, 1-(3,5-difluorophenyl)-N-[3′,4′-dimethoxy-2-(1H-tetrazol-5-yl)biphenyl-4-yl]cyclopropane carboxamide], CCOc1cncc(-c2ccc(NC(=O)C3(c4ccc(F)cc4F)CC3)cc2-c2nnn[nH]2)c1 [Example 157, 1-(2,4-difluorophenyl)-N-[4-(5-ethoxypyridin-3-yl)-3-(1H-tetrazol-5-yl)phenyl] cyclopropane-carboxamide] is 1.6-fold higher in IC50: 86.6 nM for the first, 140 nM for the second.
